Data from patent publication US20230142338A1, “THIOPHENYL DERIVATIVES USEFUL FOR MODULATING NUCLEIC ACID SPLICING” (REMIX THERAPEUTICS INC., priority 2020, published 2023).

Tests used:
Type in all cases: cell-based
HTT CJ mRNA [1] = test: Gene panel canonical junction qPCR assay: HTT; conditions: Table 3, concentration having 50% response in CJ decrease, read-out: HTT IC50 (decrease in CJ mRNA levels)
Procedure: (§1) Compounds described herein were used to modulate RNA transcript abundance in cells. The expression of a target mRNA was measured by detecting the formation of an exon-exon junction in the canonical transcript (CJ). A compound mediated exon-inclusion event was detected by observing an increase in formation of a new junction with an alternative exon (AJ). Real-time qPCR assays were used to detect these splicing switches and interrogate the potency of various compounds towards different target genes. A high-throughput real time quantitative PCR (RT-qPCR) assay was developed to measure these two isoforms of the mRNA (CJ and AJ) for an exemplary gene, HTT, together with a control housekeeping gene, GAPDH or GUSB or PPIA, used for normalization. Briefly, the A673 or K562 cell line was treated with various compounds described herein (e.g., compounds of Formula (I)). After treatment, the levels of the HTT mRNA targets were determined from each sample of cell lysate by cDNA synthesis followed by qPCR.
(§2) The A673 cell line was cultured in DMEM with 10% FBS. Cells were diluted with full growth media and plated in a 96-well plate (15,000 cells in 100 ul media per well). The plate was incubated at 37° C. with 5% CO2 for 24 hours to allow cells to adhere. An 11-point 3-fold serial dilution of the compounds was made in DMSO then diluted in media in an intermediate plate. Compounds were transferred from the intermediate plate to the cell plate with the top dose at a final concentration of 10 uM in the well. Final DMSO concentration was kept at or below 0.25%. The cell plate was returned to the incubator at 37° C. with 5% CO2 for an additional 24 hours.
(§3) The K562 cell line was cultured in IMDM with 10% FBS. For K562, cells were diluted with full growth media and plated in either a 96-well plate (50,000 cells in 50 uL media per well) or a 384-well plate (8,000-40,000 cells in 45 uL media per well). An 11-point 3-fold serial dilution of the compounds were made in DMSO then diluted in media in an intermediate plate. Compound was transferred from the intermediate plate to the cell plate with the top dose at a final concentration of 10 uM in the well. Final DMSO concentration was kept at or below 0.25%. Final volume was 100 uL for 96-well plate and 50 uL for 384-well plate. The cell plate was then placed in an incubator at 37° C. with 5% CO2 for 24 hours.
(§4) The cells were then gently washed with 50 uL-100 uL cold PBS before proceeding to addition of lysis buffer. 30 uL-50 uL of room temperature lysis buffer with DNAse I (and optionally RNAsin) was added to each well. Cells were shaken/mixed thoroughly at room temperature for 5-10 minutes for lysis to take place and then 3 uL-5 uL of room temperature stop solution was added and wells were shaken/mixed again. After 2-5 minutes, the cell lysate plate was transferred to ice for RT-qPCR reaction setup. The lysates could also be frozen at −80° C. for later use.
(§5) In some cases, a direct lysis buffer was used. An appropriate volume of 3× lysis buffer (10 mM Tris, 150 mM NaCl, 1.5%-2.5% Igepal and 0.1-1 U/uL RNAsin, pH 7.4) was directly added to either K562 or A673 cells in media and mixed by pipetting 3 times. The plates were then incubated at room temperature with shaking/rocking for 20-50 minutes to allow for lysis to take place. After this time, the cell lysate plate was transferred to ice to set up for the RT-qPCR reactions. The lysates could also be frozen at −80° C. for later use.
(§6) To set up 10 uL RT-qPCR reactions, cell lysates were transferred to 384-well qPCR plates containing the master mix according to the table below. The plates were sealed, gently vortexed, and spun down before the run. The volumes were adjusted accordingly in some instances where the reaction was carried in 20 uL. The table below summarizes the components of the RT-qPCR reactions:
(§7) The RT-qPCR reaction was performed using a QuantStudio (ThermoFisher) under the following fast cycling conditions. […]

HTT CJ mRNA [2] = test: Splicing assay (RT-qPCR): decrease in HTT canonical junction (CJ) mRNA; conditions: A673 or K562 cells, 24 hours treatment; concentration having 50% response in CJ mRNA decrease
Procedure: as §1, §2, §3, §4, §5, §6, §7

Target C CJ mRNA = test: Gene panel canonical junction qPCR assay: Target C; conditions: Table 3, concentration having 50% response in CJ decrease, read-out: Target C IC50 (decrease in CJ mRNA levels)
Procedure: as §1, §2, §3, §4, §5, §6, §7

HTT AJ mRNA = test: Splicing assay (RT-qPCR): increase in HTT alternative junction (AJ) mRNA; conditions: A673 or K562 cells, 24 hours treatment; concentration having 50% response in AJ mRNA increase
Procedure: as §1, §2, §3, §4, §5, §6, §7

SMN2 CJ mRNA = test: Gene panel canonical junction qPCR assay: SMN2; conditions: Table 3, concentration having 50% response in CJ decrease, read-out: SMN2 IC50 (decrease in CJ mRNA levels)
Procedure: as §1, §2, §3, §4, §5, §6, §7

IC50 (HTT CJ mRNA [1]) [nM] | IC50 (Target C CJ mRNA) [nM] | IC50 (SMN2 CJ mRNA) [nM] | Compound | AC50 (HTT CJ mRNA [2]) [nM] | AC50 (HTT AJ mRNA) [nM]
100 to 1000 | 100 to 1000 | < 100 | Cc1cn2nc(NC(=O)c3sc([C@@H]4CCN[C@H](C)C4)cc3F)cc(C)c2n1 [Compound 101, N-[2,8-dimethylimidazo[1,2-b]pyridazin-6-yl]-3-fluoro-5-[(2R,4R)-2-methylpiperidin-4-yl] thiophene-2-carboxamide] | 100 to 1000 | 100 to 1000
100 to 1000 | 1000 to 10000 | 100 to 1000 | Cc1cn2nc(NC(=O)c3sc([C@H]4CCN[C@@H](C)C4)cc3F)cc(C)c2n1 [Compound 102, N-[2,8-dimethylimidazo[1,2-b]pyridazin-6-yl]-3-fluoro-5-[(2S,4S)-2-methylpiperidin-4-yl] thiophene-2-carboxamide] | 100 to 1000 | 1000 to 10000
100 to 1000 | 1000 to 10000 | < 100 | Cc1cn2nc(NC(=O)c3sc([C@H]4CCN[C@H](C)C4)cc3F)cc(C)c2n1 [Compound 103, N-[2,8-dimethylimidazo[1,2-b]pyridazin-6-yl]-3-fluoro-5-[(2R,4S)-2-methylpiperidin-4-yl] thiophene-2-carboxamide] | 100 to 1000 | 100 to 1000
< 100 | 100 to 1000 | < 100 | Cc1cn2nc(NC(=O)c3sc([C@@H]4CCN[C@@H](C)C4)cc3F)cc(C)c2n1 [Compound 104, N-[2,8-dimethylimidazo[1,2-b]pyridazin-6-yl]-3-fluoro-5-[(2S,4R)-2-methylpiperidin-4-yl]thiophene-2-carboxamide] | < 100 | 100 to 1000
– | – | – | Cc1cn2cc(-c3cc(F)c(C(=O)NC4CCN(C)CC4)s3)nc2c(C)n1 [Compound 109, 5-[6,8-dimethylimidazo[1,2-a]pyrazin-2-yl]-3-fluoro-N-(1-methylpiperidin-4-yl)thiophene-2-carboxamide] | 1000 to 10000 | > 10000
– | – | – | Cc1cn2cc(-c3cc(F)c(C(=O)N[C@H]4CCN[C@@H](C)C4)s3)nc2c(C)n1 [Compound 112] | > 10000 | > 10000
– | – | – | Cc1cn2cc(-c3cc(F)c(C(=O)N[C@H]4CCN[C@H](C)C4)s3)nc2c(C)n1 [Compound 113] | 100 to 1000 | > 10000
100 to 1000 | 1000 to 10000 | < 100 | Cc1cn2cc(NC(=O)c3sc([C@@H]4CCN[C@H](C)C4)cc3F)cc(F)c2n1 [Compound 114, 3-fluoro-N-[8-fluoro-2-methylimidazo[1,2-a]pyridin-6-yl]-5-[(2R,4R)-2-methylpiperidin-4-yl]thiophene-2-carboxamide] | 100 to 1000 | 100 to 1000
100 to 1000 | – | 100 to 1000 | Cc1cn2cc(NC(=O)c3sc([C@H]4CCN[C@@H](C)C4)cc3F)cc(F)c2n1 [Compound 115, 3-fluoro-N-[8-fluoro-2-methylimidazo[1,2-a]pyridin-6-yl]-5-[(2S,4S)-2-methylpiperidin-4-yl]thiophene-2-carboxamide] | 100 to 1000 | 100 to 1000
100 to 1000 | 1000 to 10000 | < 100 | Cc1cn2cc(NC(=O)c3sc([C@@H]4CCN[C@@H](C)C4)cc3F)cc(F)c2n1 [Compound 116, 3-fluoro-N-[8-fluoro-2-methylimidazo[1,2-a]pyridin-6-yl]-5-[(2S,4R)-2-methylpiperidin-4-yl]thiophene-2-carboxamide] | 100 to 1000 | 100 to 1000
100 to 1000 | 1000 to 10000 | 100 to 1000 | Cc1cn2cc(NC(=O)c3sc([C@H]4CCN[C@H](C)C4)cc3F)cc(F)c2n1 [Compound 117, 3-fluoro-N-[8-fluoro-2-methylimidazo[1,2-a]pyridin-6-yl]-5-[(2R,4S)-2-methylpiperidin-4-yl]thiophene-2-carboxamide] | 100 to 1000 | 1000 to 10000
> 10 | – | 100 to 1000 | Cc1cn2cc(NC(=O)c3ccc(N4CCNC(C)C4)s3)cc(F)c2n1 (stereo not drawn) [Compound 122, N-[8-fluoro-2-methylimidazo[1,2-a]-pyridin-6-yl]-5-(3-methylpip-erazin-1-yl)-thiophene-2-carboxamide] | > 10000 | > 10000
1000 to 10000 | – | 100 to 1000 | Cc1cn2cc(NC(=O)c3sc(N4CCNCC4)cc3F)cc(F)c2n1 [Compound 126, 3-fluoro-N-[8-fluoro-2-methylimidazo[1,2-a]pyridin-6-yl]-5-(piperazin-1-yl)thiophene-2-carboxamide] | 1000 to 10000 | 1000 to 10000
1000 to 10000 | – | 100 to 1000 | Cc1cn2cc(NC(=O)c3sc(N4CCNC(C)C4)cc3F)cc(F)c2n1 (stereo not drawn) [Compound 128, 3-fluoro-N-[8-fluoro-2-methylimidazo[1,2-a]pyridin-6-yl]-5-(3-methylpiperazin-1-yl)thiophene-2-carboxamide] | 1000 to 10000 | > 10000
– | – | – | CCC1CN(c2cc(F)c(C(=O)Nc3cc(F)c4nc(C)cn4c3)s2)CCN1 (stereo not drawn) [Compound 130, 5-(3-ethylpiperazin-1-yl)-3-fluoro-N-[8-fluoro-2-methylimidazo[1,2-a]pyridin-6-yl]thiophene-2-carboxamide] | 1000 to 10000 | > 10000
– | – | – | Cc1cn2cc(NC(=O)c3sc(N4CC5(CN(C)C5)C4)cc3F)cc(F)c2n1 [Compound 135, 3-fluoro-N-[8-fluoro-2-methylimidazo[1,2-a]pyridin-6-yl]-5-[6-methyl-2,6-diazaspiro[3.3]heptan-2-yl]thiophene-2-carboxamide] | 1000 to 10000 | > 10000
– | – | – | Cc1cn2cc(NC(=O)c3sc(N4CCC(N(C)C)CC4)cc3F)cc(F)c2n1 [Compound 140, 5-[4-(dimethylamino)piperidin-1-yl]-3-fluoro-N-[8-fluoro-2-methylimidazo[1,2-a]pyridin-6-yl]thiophene-2-carboxamide] | 1000 to 10000 | 100 to 1000
100 to 1000 | – | < 100 | Cc1cn2cc(NC(=O)c3sc(C4CCNCC4)cc3F)cc(F)c2n1 [Compound 144, 3-fluoro-N-[8-fluoro-2-methylimidazo[1,2-a]pyridin-6-yl]-5-(piperidin-4-yl) thiophene-2-carboxamide] | 100 to 1000 | 100 to 1000
– | – | – | Cc1cn2cc(NC(=O)c3sc(C4CC(C)(C)NC(C)(C)C4)cc3F)cc(F)c2n1 [Compound 148, 3-fluoro-N-[8-fluoro-2-methylimidazo[1,2-a]pyridin-6-yl]-5-(2,2,6,6-tetramethylpiperidin-4-yl)thiophene-2-carboxamide] | 100 to 1000 | 100 to 1000
– | – | – | Cc1cn2cc(NC(=O)c3sc(N4CCNC(C)C4)cc3F)nc2c(C)n1 (stereo not drawn) [Compound 168, N-[6,8-dimethylimidazo[1,2-a]pyrazin-2-yl]-3-fluoro-5-(3-methylpiperazin-1-yl)thiophene-2-carboxamide] | 1000 to 10000 | > 10000
> 10 | – | 1000 to 10000 | Cc1cn2cc(NC(=O)c3sc(N4CCNC(C)C4)c(Cl)c3Cl)cc(F)c2n1 (stereo not drawn) [Compound 186] | > 10000 | > 10000
